Measured values reported in ChEMBL document CHEMBL1153635, “Identification of [4-[4-(methylsulfonyl)phenyl]-6-(trifluoromethyl)-2-pyrimidinyl] amines and ethers as potent and selective cyclooxygenase-2 inhibitors” (Bioorg Med Chem Lett, 2009).
Active and inactive are the calls of the source. The rule behind the calls is not given here.

molecular target: T1, Prostaglandin G/H synthase 2 (Homo sapiens, UniProt P35354); assay: not given; format: cell-based, COS; settings: not given
T1 sequence (P35354 whole entry): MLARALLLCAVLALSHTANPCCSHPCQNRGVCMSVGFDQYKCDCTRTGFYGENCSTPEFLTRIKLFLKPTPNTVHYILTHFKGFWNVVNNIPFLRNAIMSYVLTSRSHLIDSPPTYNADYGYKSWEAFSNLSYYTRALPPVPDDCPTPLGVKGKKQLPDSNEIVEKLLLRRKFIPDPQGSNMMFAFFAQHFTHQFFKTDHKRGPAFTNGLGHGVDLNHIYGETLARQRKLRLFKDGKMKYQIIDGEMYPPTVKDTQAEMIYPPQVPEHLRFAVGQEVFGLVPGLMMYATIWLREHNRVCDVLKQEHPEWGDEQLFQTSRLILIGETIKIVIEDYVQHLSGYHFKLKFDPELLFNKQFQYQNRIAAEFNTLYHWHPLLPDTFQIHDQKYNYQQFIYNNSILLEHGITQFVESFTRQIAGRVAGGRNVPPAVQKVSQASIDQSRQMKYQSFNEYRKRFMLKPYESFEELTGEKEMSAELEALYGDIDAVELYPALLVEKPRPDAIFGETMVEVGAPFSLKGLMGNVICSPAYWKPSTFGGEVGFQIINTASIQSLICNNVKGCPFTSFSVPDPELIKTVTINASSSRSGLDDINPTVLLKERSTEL

Row | SMILES | IC50 [nM]
1 | Cc1ccc(N(C)c2nc(-c3ccc(S(C)(=O)=O)cc3)cc(C(F)(F)F)n2)cc1 | 3
2 | NS(=O)(=O)c1ccc(-c2cc(C(F)(F)F)nc(NC3CCCCC3)n2)cc1 | 2.4
3 | Cc1c(-c2ccc(S(C)(=O)=O)cc2)nc(NC2CCCCC2)nc1C(F)(F)F | > 10000
4 | CCCCNc1nc(-c2ccc(S(N)(=O)=O)cc2)cc(C(F)(F)F)n1 | < 1.4
5 | CCCNc1nc(-c2ccc(S(C)(=O)=O)cc2)cc(C(F)(F)F)n1 | 5
6 | CS(=O)(=O)c1ccc(-c2cc(C(F)(F)F)nc(NCC3CCOCC3)n2)cc1 | 5
7 | Cc1ccc(CNc2nc(-c3ccc(S(C)(=O)=O)cc3)cc(C(F)(F)F)n2)cc1 | < 10
8 | CS(=O)(=O)c1ccc(-c2cc(C(F)(F)F)nc(Nc3ccccc3)n2)cc1 | 5.6
9 | CC(C)CNc1nc(-c2ccc(S(C)(=O)=O)cc2)cc(C(F)(F)F)n1 | 2
10 | CS(=O)(=O)c1ccc(-c2cc(N)nc(NC3CCCCC3)n2)cc1 | > 10000
11 | Cc1ccc(Nc2nc(-c3ccc(S(C)(=O)=O)cc3)cc(C(F)(F)F)n2)cc1 | 11
12 | Cc1cnc(NC2CCCCC2)nc1-c1ccc(S(C)(=O)=O)cc1 | > 10000
13 | CS(=O)(=O)c1ccc(-c2cc(C(F)(F)F)nc(NC3CCNCC3)n2)cc1 | > 10000
14 | CS(=O)(=O)c1ccc(-c2ccnc(NC3CCCCC3)n2)cc1 | > 10000
15 | CS(=O)(=O)c1ccc(-c2cc(C(=O)O)nc(NC3CCCCC3)n2)cc1 | > 10000
16 | CS(=O)(=O)c1ccc(-c2cc(C(F)(F)F)nc(NCC3CCCCC3)n2)cc1 | 29
17 | CS(=O)(=O)c1ccc(-c2cc(C(N)=O)nc(NC3CCCCC3)n2)cc1 | > 10000
18 | Cc1cc(-c2ccc(S(C)(=O)=O)cc2)nc(NC2CCCCC2)n1 | 1680
19 | CS(=O)(=O)c1ccc(-c2cc(OCC(F)(F)F)nc(NC3CCCCC3)n2)cc1 | 16

molecular target: T2, Prostaglandin G/H synthase 1 (Homo sapiens, UniProt P23219); assay: biochemical; format: cell-based, COS; settings: not given
T2 sequence (P23219 whole entry): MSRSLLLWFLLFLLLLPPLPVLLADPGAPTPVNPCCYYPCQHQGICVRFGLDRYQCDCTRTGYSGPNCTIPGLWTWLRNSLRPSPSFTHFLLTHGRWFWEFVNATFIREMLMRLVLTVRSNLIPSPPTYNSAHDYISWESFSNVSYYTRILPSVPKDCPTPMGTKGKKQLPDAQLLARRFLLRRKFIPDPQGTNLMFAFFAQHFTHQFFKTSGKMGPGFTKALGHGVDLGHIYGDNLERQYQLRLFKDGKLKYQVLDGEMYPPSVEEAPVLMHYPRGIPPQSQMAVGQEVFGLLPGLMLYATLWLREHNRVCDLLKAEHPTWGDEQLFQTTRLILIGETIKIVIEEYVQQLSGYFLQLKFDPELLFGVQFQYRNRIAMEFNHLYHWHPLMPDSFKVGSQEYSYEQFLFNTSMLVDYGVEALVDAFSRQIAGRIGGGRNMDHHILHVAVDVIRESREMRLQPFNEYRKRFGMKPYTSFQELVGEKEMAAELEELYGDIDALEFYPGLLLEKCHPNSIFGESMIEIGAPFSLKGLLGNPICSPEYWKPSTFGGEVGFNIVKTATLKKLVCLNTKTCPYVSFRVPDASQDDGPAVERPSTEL

Row | SMILES | IC50 [nM]
20 | Cc1ccc(N(C)c2nc(-c3ccc(S(C)(=O)=O)cc3)cc(C(F)(F)F)n2)cc1 | > 74200
21 | NS(=O)(=O)c1ccc(-c2cc(C(F)(F)F)nc(NC3CCCCC3)n2)cc1 | 167
22 | Cc1c(-c2ccc(S(C)(=O)=O)cc2)nc(NC2CCCCC2)nc1C(F)(F)F | > 100000
23 | CCCCNc1nc(-c2ccc(S(N)(=O)=O)cc2)cc(C(F)(F)F)n1 | 700
24 | CCCNc1nc(-c2ccc(S(C)(=O)=O)cc2)cc(C(F)(F)F)n1 | > 100000
25 | CS(=O)(=O)c1ccc(-c2cc(C(F)(F)F)nc(NCC3CCOCC3)n2)cc1 | 100000
26 | Cc1ccc(CNc2nc(-c3ccc(S(C)(=O)=O)cc3)cc(C(F)(F)F)n2)cc1 | > 100000
27 | CS(=O)(=O)c1ccc(-c2cc(C(F)(F)F)nc(Nc3ccccc3)n2)cc1 | > 100000
28 | CC(C)CNc1nc(-c2ccc(S(C)(=O)=O)cc2)cc(C(F)(F)F)n1 | > 66200
29 | CS(=O)(=O)c1ccc(-c2cc(N)nc(NC3CCCCC3)n2)cc1 | > 100000
30 | Cc1ccc(Nc2nc(-c3ccc(S(C)(=O)=O)cc3)cc(C(F)(F)F)n2)cc1 | > 100000
31 | Cc1cnc(NC2CCCCC2)nc1-c1ccc(S(C)(=O)=O)cc1 | > 100000
32 | CS(=O)(=O)c1ccc(-c2cc(C(F)(F)F)nc(NC3CCNCC3)n2)cc1 | > 100000
33 | CS(=O)(=O)c1ccc(-c2ccnc(NC3CCCCC3)n2)cc1 | > 100000
34 | CS(=O)(=O)c1ccc(-c2cc(C(=O)O)nc(NC3CCCCC3)n2)cc1 | > 100000
35 | CS(=O)(=O)c1ccc(-c2cc(C(F)(F)F)nc(NCC3CCCCC3)n2)cc1 | > 100000
36 | CS(=O)(=O)c1ccc(-c2cc(C(N)=O)nc(NC3CCCCC3)n2)cc1 | > 100000
37 | Cc1cc(-c2ccc(S(C)(=O)=O)cc2)nc(NC2CCCCC2)n1 | > 100000
38 | CS(=O)(=O)c1ccc(-c2cc(OCC(F)(F)F)nc(NC3CCCCC3)n2)cc1 | 6320

test system: COS; assay: Selectivity ratio of IC50 for human COX1 to IC50 for human COX2 expressed in african green monkey COS cells; format: cell-based; settings: not given

Row | SMILES | Ratio IC50
39 | Cc1ccc(N(C)c2nc(-c3ccc(S(C)(=O)=O)cc3)cc(C(F)(F)F)n2)cc1 | > 24700
40 | NS(=O)(=O)c1ccc(-c2cc(C(F)(F)F)nc(NC3CCCCC3)n2)cc1 | 69.5
41 | Cc1c(-c2ccc(S(C)(=O)=O)cc2)nc(NC2CCCCC2)nc1C(F)(F)F | inactive
42 | CCCCNc1nc(-c2ccc(S(N)(=O)=O)cc2)cc(C(F)(F)F)n1 | > 500
43 | CCCNc1nc(-c2ccc(S(C)(=O)=O)cc2)cc(C(F)(F)F)n1 | > 2000
44 | CS(=O)(=O)c1ccc(-c2cc(C(F)(F)F)nc(NCC3CCOCC3)n2)cc1 | 20000
45 | Cc1ccc(CNc2nc(-c3ccc(S(C)(=O)=O)cc3)cc(C(F)(F)F)n2)cc1 | > 10000
46 | CS(=O)(=O)c1ccc(-c2cc(C(F)(F)F)nc(Nc3ccccc3)n2)cc1 | > 17900
47 | CC(C)CNc1nc(-c2ccc(S(C)(=O)=O)cc2)cc(C(F)(F)F)n1 | > 33100
48 | CS(=O)(=O)c1ccc(-c2cc(N)nc(NC3CCCCC3)n2)cc1 | inactive
49 | Cc1ccc(Nc2nc(-c3ccc(S(C)(=O)=O)cc3)cc(C(F)(F)F)n2)cc1 | > 9090
50 | Cc1cnc(NC2CCCCC2)nc1-c1ccc(S(C)(=O)=O)cc1 | inactive
51 | CS(=O)(=O)c1ccc(-c2cc(C(F)(F)F)nc(NC3CCNCC3)n2)cc1 | inactive
52 | CS(=O)(=O)c1ccc(-c2ccnc(NC3CCCCC3)n2)cc1 | inactive
53 | CS(=O)(=O)c1ccc(-c2cc(C(=O)O)nc(NC3CCCCC3)n2)cc1 | inactive
54 | CS(=O)(=O)c1ccc(-c2cc(C(F)(F)F)nc(NCC3CCCCC3)n2)cc1 | > 3450
55 | CS(=O)(=O)c1ccc(-c2cc(C(N)=O)nc(NC3CCCCC3)n2)cc1 | inactive
56 | Cc1cc(-c2ccc(S(C)(=O)=O)cc2)nc(NC2CCCCC2)n1 | > 59
57 | CS(=O)(=O)c1ccc(-c2cc(OCC(F)(F)F)nc(NC3CCCCC3)n2)cc1 | 395

molecular target: T1, Prostaglandin G/H synthase 2; assay: biochemical; format: cell-based, Sf9; settings: not given

Row | SMILES | IC50 [nM]
58 | CC(C)CNc1nc(-c2ccc(S(C)(=O)=O)cc2)cc(C(F)(F)F)n1 | 12

molecular target: T2, Prostaglandin G/H synthase 1; assay: biochemical; format: cell-based, Sf9; settings: not given; remark: another data set of the same source

Row | SMILES | IC50 [nM]
59 | CC(C)CNc1nc(-c2ccc(S(C)(=O)=O)cc2)cc(C(F)(F)F)n1 | > 100000

test system: not listed separately; assay: Selectivity ratio of IC50 for human COX1 to IC50 for human COX2 expressed in baculovirus-infected SF9 cells; settings: not given

Row | SMILES | Ratio IC50
60 | CC(C)CNc1nc(-c2ccc(S(C)(=O)=O)cc2)cc(C(F)(F)F)n1 | > 8330

molecular target: T1, Prostaglandin G/H synthase 2; assay: not given; format: tissue-based, Blood; settings: not given; remark: another data set of the same source

Row | SMILES | IC50 [nM]
61 | CC(C)CNc1nc(-c2ccc(S(C)(=O)=O)cc2)cc(C(F)(F)F)n1 | 206

molecular target: T2, Prostaglandin G/H synthase 1; assay: not given; format: tissue-based, Blood; settings: not given

Row | SMILES | IC50 [nM]
62 | CC(C)CNc1nc(-c2ccc(S(C)(=O)=O)cc2)cc(C(F)(F)F)n1 | 62000

species on record: Homo sapiens; assay: Selectivity ratio of IC50 for COX1 to IC50 for COX2 in human whole blood; format: tissue-based; settings: not given

Row | SMILES | Ratio IC50
63 | CC(C)CNc1nc(-c2ccc(S(C)(=O)=O)cc2)cc(C(F)(F)F)n1 | 301

test system: not listed separately; assay: Blood clearance in rat at 1 mg/kg/hr, iv; format: ADME, organism-based; parameters: route intravenous; settings: whole blood

Row | SMILES | clearance [mL/min/kg]
64 | CC(C)CNc1nc(-c2ccc(S(C)(=O)=O)cc2)cc(C(F)(F)F)n1 | 10

test system: not listed separately; assay: Volume of distribution at steady state in rat at 1 mg/kg/hr, iv; format: ADME, organism-based; parameters: route intravenous; settings: in vivo, read-out: Vdss

Row | SMILES | Vd [L/kg]
65 | CC(C)CNc1nc(-c2ccc(S(C)(=O)=O)cc2)cc(C(F)(F)F)n1 | 6

test system: not listed separately; assay: Oral bioavailability in rat at 5 mg/kg; format: ADME, organism-based; settings: in vivo

Row | SMILES | bioavailability [%]
66 | CC(C)CNc1nc(-c2ccc(S(C)(=O)=O)cc2)cc(C(F)(F)F)n1 | 107

species on record: Rattus norvegicus; assay: Analgesic activity against Freund's adjuvant-induced pain in rat model of acute inflammatory pain assessed as reversal of adjuvant hypersensitivity; format: functional; settings: not given

Row | SMILES | ED50 [mg/kg]
67 | CC(C)CNc1nc(-c2ccc(S(C)(=O)=O)cc2)cc(C(F)(F)F)n1 | 0.5

test system: not listed separately; assay: Terminal half life in rat at 1 mg/kg/hr, iv; format: ADME, organism-based; parameters: route intravenous; settings: in vivo, read-out: beta t1/2 (converted)

Row | SMILES | half-life [h]
68 | CC(C)CNc1nc(-c2ccc(S(C)(=O)=O)cc2)cc(C(F)(F)F)n1 | 9
